Key:
[1] = system: Rattus norvegicus; test: Toxicity in […] model assessed as serum BUN level at 10 mg/kg, po qd for 31 days measured on day 32 (reference value: 28.3 +/- […]); type: organism-based; settings: in vivo, 744 h
[2] = Cmax in CD-1 mouse at 20 mg/kg administered via oral gavage by LC-MS analysis; type: ADME, organism-based; design: dose 20 mg/kg, route oral; settings: in vivo
[3] = system: Rattus norvegicus; test: Effect on MLYCD gene expression in epididymal white adipose tissue of Zucker rat sub-chronic fa/fa prediabetic model at 10 mg/kg, po qd for 15 days by microarray analysis relative to control; type: functional
[4] = system: Rattus norvegicus; test: Toxicity in […] chronic ob/ob model assessed as brown adipose tissue weight at 10 mg/kg, po qd for 31 days measured on day 32 (reference value: 0.59 +/- 0.05 g); type: organism-based; settings: in vivo, 744 h
[5] = target: Peroxisome proliferator-activated receptor alpha (Homo sapiens, UniProt Q07869); test: Antagonist activity at recombinant GST-tagged human PPARalpha LBD assessed as inhibition of GW7647-induced fluorescein-labeled coactivator peptide recruitment preincubated with enzyme followed by coactivator addition by LanthaScreen TR-FRET assay
Sequence of Peroxisome proliferator-activated receptor alpha (Q07869 whole entry, the tested form may be a part): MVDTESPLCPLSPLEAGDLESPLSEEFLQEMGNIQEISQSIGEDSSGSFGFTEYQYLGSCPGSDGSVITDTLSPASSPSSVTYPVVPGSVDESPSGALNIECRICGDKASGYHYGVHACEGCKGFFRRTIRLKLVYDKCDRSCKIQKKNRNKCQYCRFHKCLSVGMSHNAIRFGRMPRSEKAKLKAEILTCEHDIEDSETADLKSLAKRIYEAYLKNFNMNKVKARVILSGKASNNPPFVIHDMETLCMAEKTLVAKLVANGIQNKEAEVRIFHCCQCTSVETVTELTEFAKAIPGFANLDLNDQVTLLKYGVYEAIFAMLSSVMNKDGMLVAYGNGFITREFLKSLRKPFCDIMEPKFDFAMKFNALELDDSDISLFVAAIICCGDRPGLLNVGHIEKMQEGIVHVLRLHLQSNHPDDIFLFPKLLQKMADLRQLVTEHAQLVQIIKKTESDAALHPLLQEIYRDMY

[6] = system: Rattus norvegicus; test: Effect on UCP3 gene expression in epididymal white adipose tissue of Zucker rat sub-chronic fa/fa prediabetic model at 10 mg/kg, po qd for 15 days by microarray analysis relative to control; type: functional
[7] = system: Rattus norvegicus; test: Effect on MAOB gene expression in epididymal white adipose tissue of Zucker rat sub-chronic fa/fa prediabetic model at 10 mg/kg, po qd for 15 days by microarray analysis relative to control; type: functional
[8] = target: Oxysterols receptor LXR-beta (Homo sapiens, UniProt P55055); test: Agonist activity at recombinant GST-tagged human LXRbeta LBD assessed as fluorescein-labeled coactivator peptide recruitment preincubated with enzyme followed by coactivator addition by LanthaScreen TR-FRET assay
Sequence of Oxysterols receptor LXR-beta (P55055 whole entry, the tested form may be a part): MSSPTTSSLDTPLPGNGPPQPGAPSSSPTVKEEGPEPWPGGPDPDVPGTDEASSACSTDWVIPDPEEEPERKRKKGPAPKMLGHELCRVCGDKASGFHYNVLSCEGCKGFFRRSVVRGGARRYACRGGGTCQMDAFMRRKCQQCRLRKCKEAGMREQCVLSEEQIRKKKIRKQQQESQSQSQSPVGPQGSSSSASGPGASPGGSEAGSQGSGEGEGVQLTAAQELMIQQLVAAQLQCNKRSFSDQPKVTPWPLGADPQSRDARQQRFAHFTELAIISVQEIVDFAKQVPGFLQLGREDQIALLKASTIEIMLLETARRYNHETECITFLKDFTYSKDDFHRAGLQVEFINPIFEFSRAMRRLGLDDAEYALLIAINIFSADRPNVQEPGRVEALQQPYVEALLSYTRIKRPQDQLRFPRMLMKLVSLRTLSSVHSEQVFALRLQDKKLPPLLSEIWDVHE

[9] = Clearance in Sprague-Dawley rat at 2 mg/kg, iv by LC-MS analysis; type: ADME, organism-based; settings: in vivo
[10] = target: Retinoic acid receptor beta (Homo sapiens, UniProt P10826); test: Agonist activity at recombinant GST-tagged human RARbeta LBD assessed as fluorescein-labeled coactivator peptide recruitment preincubated with enzyme followed by coactivator addition by LanthaScreen TR-FRET assay
Sequence of Retinoic acid receptor beta (P10826 whole entry, the tested form may be a part): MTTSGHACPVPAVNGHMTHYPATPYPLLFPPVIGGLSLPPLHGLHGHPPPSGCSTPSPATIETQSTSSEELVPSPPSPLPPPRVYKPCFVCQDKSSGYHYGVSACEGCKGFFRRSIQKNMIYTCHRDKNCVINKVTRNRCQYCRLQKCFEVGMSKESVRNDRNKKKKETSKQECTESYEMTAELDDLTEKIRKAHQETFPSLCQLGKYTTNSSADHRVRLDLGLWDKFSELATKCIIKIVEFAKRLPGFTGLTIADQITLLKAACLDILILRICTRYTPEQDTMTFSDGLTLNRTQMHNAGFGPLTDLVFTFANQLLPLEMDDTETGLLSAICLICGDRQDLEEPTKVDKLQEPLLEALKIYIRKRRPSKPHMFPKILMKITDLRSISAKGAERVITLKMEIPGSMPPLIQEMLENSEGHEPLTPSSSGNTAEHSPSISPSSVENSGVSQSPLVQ

[11] = system: Rattus norvegicus; test: Effect on HLA-DMB gene expression in epididymal white adipose tissue of Zucker rat sub-chronic fa/fa prediabetic model at 10 mg/kg, po qd for 15 days by microarray analysis relative to control; type: functional
[12] = AUC (0 to 24 hrs) in […] model at 50 mg/kg, po qd for 28 days measured on day 28 post last dose; type: ADME, organism-based; design: dose 50 mg/kg, time < 24 hr, route oral; settings: in vivo
[13] = Cmax in ob/ob mouse at 18 mg/kg administered via oral gavage by LC-MS analysis; type: ADME, organism-based; design: dose 18 mg/kg, route oral; settings: in vivo
[14] = system: Rattus norvegicus; test: Effect on NDUFB5 gene expression in epididymal white adipose tissue of Zucker rat sub-chronic fa/fa prediabetic model at 10 mg/kg, po qd for 15 days by microarray analysis relative to control; type: functional
[15] = system: Rattus norvegicus; test: Effect on DBT gene expression in epididymal white adipose tissue of Zucker rat sub-chronic fa/fa prediabetic model at 10 mg/kg, po qd for 15 days by microarray analysis relative to control; type: functional
[16] = system: Rattus norvegicus; test: Effect on TXNRD2 gene expression in epididymal white adipose tissue of Zucker rat sub-chronic fa/fa prediabetic model at 10 mg/kg, po qd for 15 days by microarray analysis relative to control; type: functional
[17] = system: Rattus norvegicus; test: Effect on SUCLG1 gene expression in epididymal white adipose tissue of Zucker rat sub-chronic fa/fa prediabetic model at 10 mg/kg, po qd for 15 days by microarray analysis relative to control; type: functional
[18] = system: Rattus norvegicus; test: Effect on NDUFB9 gene expression in epididymal white adipose tissue of Zucker rat sub-chronic fa/fa prediabetic model at 10 mg/kg, po qd for 15 days by microarray analysis relative to control; type: functional
[19] = system: Rattus norvegicus; test: Effect on IL1RL1 gene expression in epididymal white adipose tissue of Zucker rat sub-chronic fa/fa prediabetic model at 10 mg/kg, po qd for 15 days by microarray analysis relative to control; type: functional
[20] = system: Rattus norvegicus; test: Toxicity in Zucker rat sub-chronic fa/fa prediabetic model assessed as serum ALT level at 3 mg/kg, po qd for 31 days measured on day 32 (reference value: 151 +/- 23 U/L); type: organism-based; settings: in vivo, 744 h
[21] = system: Rattus norvegicus; type: functional, Zucker
[22] = Drug uptake in liver of Zucker rat sub-chronic fa/fa prediabetic model at 12.5 mg/kg, po qd for 11 days; type: ADME, organism-based; settings: read-out: Drug uptake
[23] = Cmax in […] chronic ob/ob model at 10 mg/kg, po qd measured on day 1 post dose; type: ADME, organism-based; design: dose 10 mg/kg, route oral; settings: in vivo
[24] = system: Rattus norvegicus; test: Antidiabetic activity in […] model assessed as HbA1C level at 50 mg/kg, po qd for 31 days measured on day 32 post dose (reference value: 5.9 +/- 0.18%); type: functional
[25] = system: Rattus norvegicus; type: functional, Zucker; remark: listed apart in the source
[26] = target: Peroxisome proliferator-activated receptor delta (Homo sapiens, UniProt Q03181); test: Antagonist activity at recombinant GST-tagged human PPARdelta LBD assessed as inhibition of GW0742-induced fluorescein-labeled coactivator peptide recruitment preincubated with enzyme followed by coactivator addition by LanthaScreen TR-FRET assay
Sequence of Peroxisome proliferator-activated receptor delta (Q03181 whole entry, the tested form may be a part): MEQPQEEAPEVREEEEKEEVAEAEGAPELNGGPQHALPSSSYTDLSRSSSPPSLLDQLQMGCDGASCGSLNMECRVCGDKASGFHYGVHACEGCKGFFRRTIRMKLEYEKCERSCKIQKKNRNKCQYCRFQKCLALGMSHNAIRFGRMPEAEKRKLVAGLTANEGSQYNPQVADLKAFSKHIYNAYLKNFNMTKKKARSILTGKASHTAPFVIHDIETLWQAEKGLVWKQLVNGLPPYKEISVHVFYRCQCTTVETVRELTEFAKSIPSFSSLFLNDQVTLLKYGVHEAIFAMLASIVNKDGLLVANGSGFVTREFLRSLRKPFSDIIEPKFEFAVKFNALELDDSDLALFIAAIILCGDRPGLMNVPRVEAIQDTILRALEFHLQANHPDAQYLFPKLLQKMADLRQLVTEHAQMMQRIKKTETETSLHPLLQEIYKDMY

[27] = Cmax in Zucker rat sub-chronic fa/fa prediabetic model at 10 mg/kg, po qd measured on day 1 post dose; type: ADME, organism-based; design: dose 10 mg/kg, route oral; settings: in vivo
[28] = AUC (0 to 24 hrs) in ob/ob mouse at 18 mg/kg administered via oral gavage by LC-MS analysis; type: ADME, organism-based; design: dose 18 mg/kg, time < 24 hr, route oral; settings: in vivo
[29] = system: Rattus norvegicus; test: Effect on ME1 gene expression in epididymal white adipose tissue of Zucker rat sub-chronic fa/fa prediabetic model at 10 mg/kg, po qd for 15 days by microarray analysis relative to control; type: functional
[30] = system: Rattus norvegicus; test: Toxicity in Zucker rat sub-chronic fa/fa prediabetic model assessed as serum creatinine level at 3 mg/kg, po qd for 31 days measured on day 32 (reference value: 0.71 +/- 0.07 mg/dl); type: organism-based; settings: in vivo, 744 h
[31] = system: Rattus norvegicus; test: Effect on NDUFS2 gene expression in epididymal white adipose tissue of Zucker rat sub-chronic fa/fa prediabetic model at 10 mg/kg, po qd for 15 days by microarray analysis relative to control; type: functional
[32] = system: Rattus norvegicus; test: Toxicity in Zucker rat sub-chronic fa/fa prediabetic model assessed as serum triglyceride level at 3 mg/kg, po qd for 31 days measured on day 32 (reference value: 1382 +/- 268 mg/dl); type: organism-based; settings: in vivo, 744 h
[33] = system: Rattus norvegicus; test: Effect on PIK3CD gene expression in epididymal white adipose tissue of Zucker rat sub-chronic fa/fa prediabetic model at 10 mg/kg, po qd for 15 days by microarray analysis relative to control; type: functional
[34] = system: Rattus norvegicus; test: Toxicity in […] chronic ob/ob model assessed as epididymal white adipose tissue weight at 50 mg/kg, po qd for 31 days measured on day 32 (reference value: 3.92 +/- 0.14 g); type: organism-based; settings: in vivo, 744 h
[35] = system: Rattus norvegicus; test: Toxicity in Zucker rat sub-chronic fa/fa prediabetic model assessed as increase in body weight at 10 mg/kg, po qd during 10 days study; type: organism-based; settings: in vivo, 240 h

CN1CC[C@@H](N2C(=O)S/C(=C\c3ccc4c(cnn4Cc4ccc(Cl)cc4C(F)(F)F)c3)C2=O)[C@H](F)C1
Activity [1]: 28.7 mg/dL | Cmax [2]: 2000 ng/mL | fold change (FC) [3]: 1.608 | Activity [4]: 0.99 g | IC50 [5]: > 10 µM | fold change (FC) [6]: 2.305 | fold change (FC) [7]: -1.452 | EC50 [8]: > 10 µM | clearance [9]: 23 mL/min/kg | EC50 [10]: > 10 µM | fold change (FC) [11]: -1.288 | AUC at 24 h [12]: 31600 ng·h/mL | Cmax [13]: 829 ng/mL | fold change (FC) [14]: 1.206 | fold change (FC) [15]: -1.217 | fold change (FC) [16]: 1.311 | fold change (FC) [17]: 1.401 | fold change (FC) [18]: 1.214 | fold change (FC) [19]: -2.752 | Activity [20]: 117 U/L | Activity [21]: 14.9% | concentration at 264 h [22]: 12400 ng/g | Cmax [23]: 520 ng/mL | Activity [24]: 5% | Activity [25]: 56958 mg·min/dL | IC50 [26]: > 10 µM | Cmax [27]: 1570 ng/mL | AUC(0-t) at 24 h [28]: 6230 ng·h/mL | fold change (FC) [29]: 2.409 | Activity [30]: 0.56 mg/dL | fold change (FC) [31]: 1.224 | Activity [32]: 584 mg/dL | fold change (FC) [33]: -1.312 | Activity [34]: 2.95 g | Activity [35]: Non-Toxic

From ChEMBL document CHEMBL4130359, “Indazole-based ligands for estrogen-related receptor α as potential anti-diabetic agents” (Eur J Med Chem, 2017)
